Source: the supplement of paper PMC8253809

Columns and labels:
DIPGX37 = H3.3 K27M diffuse intrinsic pontine glioma line; experiment: growth inhibition relative to DMSO (0) and positive control (1) (fraction); higher = more growth inhibition
Procedure, shortened: (§1)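 pHGG cell lines and astrocyte controls were grown on Geltrex-coated 384-well plates and treated for 7 days with a two-drug dose matrix, run in two plate orientations. Single-agent values are the one-drug arms of the same matrix plates. CellTiter-Glo luminescence was normalised without log2 transformation to fractional activity between solvent (0) and positive control (1) wells. The data were used for response-surface synergy modelling.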

DIPGX7 = H3.3 K27M diffuse intrinsic pontine glioma line; experiment: as above
Procedure, shortened: as §1

O=C(NOC[C@H](O)CO)c1ccc(F)c(F)c1Nc1ccc(I)cc1F + CC1(C)OCCn2c1nc1c(N3CCOCC3)nc(-c3cnc(N)nc3)nc12 [GDC0084]
growth inhibition
Details	compound 1 concentration 0.009766 µM	compound 1 concentration 0.01953 µM	compound 1 concentration 0.03906 µM	compound 1 concentration 0.07812 µM	compound 1 concentration 0.15625 µM	compound 1 concentration 0.3125 µM	compound 1 concentration 0.625 µM	compound 1 concentration 1.25 µM	compound 1 concentration 5 µM	compound 1 concentration 20 µM
DIPGX7, compound 2 concentration 0.03906 µM	-0.0325	-0.0312	-0.0934	-0.145	-0.164	-0.126	-0.119	0.0102	0.288	0.312
DIPGX7, compound 2 concentration 0.07812 µM	0.189	0.113	0.0974	0.0816	-0.0134	0.0326	0.0363	0.178	0.344	0.313
DIPGX7, compound 2 concentration 0.15625 µM	0.43	0.379	0.335	0.264	0.267	0.238	0.296	0.364	0.563	0.467
DIPGX7, compound 2 concentration 0.3125 µM	0.611	0.641	0.589	0.561	0.514	0.483	0.563	0.627	0.793	0.747
DIPGX7, compound 2 concentration 0.625 µM	0.781	0.802	0.8	0.791	0.779	0.782	0.841	0.884	0.941	0.918
DIPGX7, compound 2 concentration 1.25 µM	0.874	0.865	0.876	0.884	0.893	0.906	0.934	0.96	0.982	0.983
DIPGX7, compound 2 concentration 5 µM	0.937	0.933	0.938	0.962	0.972	0.98	0.99	0.999	1	1
DIPGX7, compound 2 concentration 20 µM	0.977	0.987	0.989	0.994	0.998	1	1	1	1	1
DIPGX37, compound 2 concentration 0.03906 µM	-0.0653	-0.109	0.00889	0.0388	0.199	0.341	0.484	0.642	0.948	0.988
DIPGX37, compound 2 concentration 0.07812 µM	0.157	0.133	0.163	0.275	0.352	0.487	0.599	0.725	0.959	0.993
DIPGX37, compound 2 concentration 0.15625 µM	0.264	0.281	0.316	0.412	0.485	0.618	0.728	0.829	0.983	0.997
DIPGX37, compound 2 concentration 0.3125 µM	0.446	0.454	0.5	0.586	0.657	0.767	0.859	0.926	0.997	1
DIPGX37, compound 2 concentration 0.625 µM	0.589	0.585	0.62	0.71	0.777	0.871	0.937	0.97	1	1
DIPGX37, compound 2 concentration 1.25 µM	0.75	0.791	0.815	0.864	0.908	0.951	0.976	0.996	1	1
DIPGX37, compound 2 concentration 5 µM	0.965	0.975	0.988	0.995	0.999	1	1	1	1	1
DIPGX37, compound 2 concentration 20 µM	0.996	0.998	0.998	0.996	0.998	0.997	0.997	0.997	0.998	1

CC1(C)OCCn2c1nc1c(N3CCOCC3)nc(-c3cnc(N)nc3)nc12 [GDC0084] + O=C(NOC[C@H](O)CO)c1ccc(F)c(F)c1Nc1ccc(I)cc1F [PD0325901]
growth inhibition
Details	compound 1 concentration 0.009766 µM	compound 1 concentration 0.01953 µM	compound 1 concentration 0.03906 µM	compound 1 concentration 0.07812 µM	compound 1 concentration 0.15625 µM	compound 1 concentration 0.3125 µM	compound 1 concentration 0.625 µM	compound 1 concentration 1.25 µM	compound 1 concentration 5 µM	compound 1 concentration 20 µM
DIPGX7, compound 2 concentration 0.03906 µM	-0.121	-0.103	-0.085	0.0493	0.217	0.56	0.762	0.886	0.945	0.998
DIPGX7, compound 2 concentration 0.07812 µM	-0.0496	9.09e-05	0.0209	0.0495	0.252	0.537	0.775	0.88	0.956	0.997
DIPGX7, compound 2 concentration 0.15625 µM	-0.0185	0.0149	0.038	0.0769	0.248	0.507	0.771	0.891	0.965	0.999
DIPGX7, compound 2 concentration 0.3125 µM	-0.0519	0.0198	0.0847	0.101	0.248	0.522	0.802	0.91	0.983	1
DIPGX7, compound 2 concentration 0.625 µM	0.0193	0.0541	0.102	0.141	0.301	0.534	0.825	0.938	0.992	1
DIPGX7, compound 2 concentration 1.25 µM	0.138	0.158	0.168	0.231	0.351	0.606	0.868	0.961	0.998	1
DIPGX7, compound 2 concentration 5 µM	0.215	0.278	0.311	0.354	0.555	0.784	0.933	0.986	1	1
DIPGX7, compound 2 concentration 20 µM	0.18	0.195	0.238	0.323	0.539	0.765	0.933	0.988	1	1
DIPGX37, compound 2 concentration 0.03906 µM	-0.147	-0.0916	-0.0557	0.033	0.217	0.429	0.588	0.762	0.979	1
DIPGX37, compound 2 concentration 0.07812 µM	-0.0133	0.012	0.0971	0.209	0.356	0.514	0.694	0.823	0.99	1
DIPGX37, compound 2 concentration 0.15625 µM	0.0798	0.113	0.192	0.297	0.433	0.58	0.744	0.879	0.999	1
DIPGX37, compound 2 concentration 0.3125 µM	0.186	0.271	0.3	0.445	0.556	0.699	0.84	0.924	1	1
DIPGX37, compound 2 concentration 0.625 µM	0.277	0.368	0.441	0.522	0.6	0.787	0.891	0.948	1	1
DIPGX37, compound 2 concentration 1.25 µM	0.458	0.508	0.592	0.657	0.743	0.882	0.953	0.984	1	1
DIPGX37, compound 2 concentration 5 µM	0.832	0.876	0.906	0.917	0.94	0.986	1	1	1	1
DIPGX37, compound 2 concentration 20 µM	0.97	0.98	0.984	0.994	0.997	1	1	1	1	1
